# Reference: patent US20100261711A1, “SELECTIVE ANTICONVULSANT AGENTS AND THEIR USES” (WiSys Technology Foundation, priority 2009, published 2010)
# Read-outs that look alike come from different tables or passages of the source.
# What was measured:
# [1] = Toxicity (TOX), rotorod procedure, mice; assay type: in vivo; conditions: mouse, in vivo; Mice IP, rotorod; read-out: TD50 TOX
# [2] = test system: minimal muscular or neurological impairment; assay: Toxicity (TOX), rotorod procedure, mice; assay type: in vivo
# [3] = test system: Metrazol-induced clonic seizures; assay: Subcutaneous Metrazol test (scMet), mice; assay type: in vivo
# [4] = test system: MES-induced seizures; assay: Maximal electroshock test (MES), mice; assay type: in vivo
# [5] = test system: MES-induced seizures; assay: Maximal electroshock test (MES), rats; assay type: in vivo; conditions: Rat PO
# Protocol: The benzodiazepine derivative compounds selective for GABAa receptor subunits were tested for the ability to suppress seizures in several standard rat and mouse models of epilepsy. […] The standard models incorporated into anticonvulsant screening include the maximal electroshock test (MES), the subcutaneous Metrazol test (scMet), and evaluations of toxicity (TOX). The data for each condition is presented as a ratio of either the number of animals protected or toxic (loss of locomotor activity) over the number of animals tested at a given time point and dose.
# The MES is a model for generalized tonic-clonic seizures and provides an indication of a compound's ability to prevent seizure spread when all neuronal circuits in the brain are maximally active. These seizures are highly reproducible and are electrophysiologically consistent with human seizures. For all tests based on MES convulsions, 60 Hz of alternating current (50 mA in mice, 150 in rats) is delivered for by corneal electrodes which have been primed with an electrolyte solution containing an anesthetic agent (0.5% tetracaine HCL). For Test 1, mice are tested at various intervals following doses of 30, 100 and 300 mg/kg of test compound given by ip injection of a volume of 0.01 mL/g. In Test 2, rats are tested after a dose of 30 mg/kg (po) in a volume of 0.04 mL/g. Test 8 uses varying doses administered via i.p. injection, again in a volume of 0.04 ml/g. […] In Antiepileptic Drugs, Levy, R. H. M., Meldrum, B. S., Eds.; Raven Press: New York, pp 99-110, 1995b.).
# [6] = test system: minimal motor deficit (ataxia, abnormal gait); assay: Toxicity (TOX), minimal motor deficit, rats; assay type: in vivo; conditions: for TOX (Rotorod Test), animals toxic/tested: Rat IP, 100 mg/kg; for Tox, animals toxic/tested: 50 mg/kg
# [7] = test system: 6 Hz psychomotor seizure; assay: Minimal clonic seizure (6 Hz) test; assay type: in vivo; conditions: Mice IP; for 6 Hz, animals protected/tested: 100 m/k; for ED50: Mus musculus, ip
# Summary of the method: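 Mice dosed ip with test compound before 6 Hz corneal-type electrical stimulation lasting 3 s. Protection scored as absence of minimal clonic phase and stereotyped automatistic behaviour seen in untreated animals.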
# [8] = target: T1, GABAA/α2 (α2β3γ2 GABAA receptors) (Homo sapiens, UniProt P18507+P47869); assay: Competitive binding assay, [3H]flunitrazepam; conditions: Binding Affinity at GABAA/α2, αxβ3γ2, [3H]flunitrazepam competition
# T1 construct: expressed in transfected cells
# Summary of the method: (§1)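 Bound ligand was collected on 0.3% polyethyleneimine-pretreated GF/C filters with three ice-cold washes and quantified by liquid scintillation counting; membrane protein was determined against a BSA standard.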
# [9] = target: T2, GABAA/α5 (α5β3γ2 GABAA receptors) (Homo sapiens, UniProt P18507+P31644); assay: Competitive binding assay, [3H]flunitrazepam; conditions: Binding Affinity at GABAA/α5, αxβ3γ2, [3H]flunitrazepam competition
# T2 construct: expressed in transfected cells
# Summary of the method: as §1
# [10] = target: T3, GABAA/α1 (α1β3γ2 GABAA receptors) (Homo sapiens, UniProt P14867+P18507); assay: Competitive binding assay, [3H]flunitrazepam; conditions: Binding Affinity at GABAA/α1, αxβ3γ2, [3H]flunitrazepam competition
# T3 construct: expressed in transfected cells
# Summary of the method: as §1
# [11] = Mice, 50 mg/kg PO (Mice IP), 0.5 hr
# [12] = Mice, 50 mg/kg PO (Mice IP), 4.0 hr
compound,measurement,setting,value
"C#Cc1ccc2c(c1)C(c1ccccn1)=NCc1c(C(=O)OCC)ncn1-2 [Hz166 (106), 8-Acetylenyl-6-pyridin-2-yl-4H-benzo[f]imidazo[1,5-a][1,4]diazepine-3-carboxylic acid ethyl ester]",TD50,[1],> 500 mg/kg
same,"TOX (Rotorod Test), animals toxic/tested","[2]; Mice IP, 100 mg/kg, 0.5 hr",0/8
same,"TOX (Rotorod Test), animals toxic/tested","[2]; Mice IP, 100 mg/kg, 4.0 hr",0/4
same,TD50 TOX,"[2]; Mice IP, rotorod",> 500 mg/kg
same,"TOX (Rotorod Test), animals toxic/tested",[2]; [11],0/4
same,"TOX (Rotorod Test), animals toxic/tested",[2]; [12],0/4
same,mice protected against scMet induced seizures,"[3]; Mice IP, 100 mg/kg, 0.5 hr",60%
same,"scMet, animals protected/tested","[3]; Mice IP, 100 mg/kg, 0.5 hr",3/5
same,"scMet, animals protected/tested","[3]; Mice IP, 100 mg/kg, 4.0 hr",0/1
same,"scMet, animals protected/tested",[3]; [11],4/4
same,"scMet, animals protected/tested",[3]; [12],0/4
same,ED50,"[3]; Mus musculus, Mice IP",16.3 mg/kg
same,"MES, animals protected/tested","[4]; Mice IP, 100 mg/kg, 0.5 hr",0/3
same,"MES, animals protected/tested","[4]; Mice IP, 100 mg/kg, 4.0 hr",0/3
same,"MES, animals protected/tested",[4]; [11],1/4
same,"MES, animals protected/tested",[4]; [12],0/4
same,ED50,"[4]; Mus musculus, Mice IP",> 300 mg/kg
same,ED50,[5],> 250 mg/kg
same,"MES, animals protected/tested","[5]; 30 mg/kg, 0.5 h",1/4
same,"MES, animals protected/tested","[5]; 30 mg/kg, 1.0 h",0/4
same,"MES, animals protected/tested","[5]; 30 mg/kg, 2.0 h",0/4
same,"MES, animals protected/tested","[5]; 30 mg/kg, 4.0 h",0/4
same,"MES, animals protected/tested","[5]; 30 mg/kg, […]",0/4
same,"TOX (Rotorod Test), animals toxic/tested",[6]; 0.5 hr,0/8
same,"TOX (Rotorod Test), animals toxic/tested",[6]; 4.0 hr,0/8
same,"Tox, animals toxic/tested","[6]; Rat PO, 0.5 h",0/4
same,"Tox, animals toxic/tested","[6]; Rat PO, 1.0 h",0/4
same,"Tox, animals toxic/tested","[6]; Rat PO, 2.0 h",0/4
same,"Tox, animals toxic/tested","[6]; Rat PO, 4.0 h",0/4
same,"Tox, animals toxic/tested","[6]; Rat PO, […]",0/4
same,TD50 TOX,"[6]; Rat PO, abnormal gait",>500 mg/kg
same,motor impairment / sedative or locomotor effects,"[6]; rats, oral administration, up to 500 mg/kg",No motor impairment
same,"6 Hz, animals protected/tested","[7]; 44 mA, 0.5 hr",1/4
same,"6 Hz, animals protected/tested","[7]; 44 mA, 1.0 hr",1/4
same,"6 Hz, animals protected/tested","[7]; 44 mA, 2.0 hr",0/4
same,"6 Hz, animals protected/tested","[7]; 44 mA, 4 hr",0/4
same,"6 Hz, animals protected/tested","[7]; 44 mA, […]",4/4
same,ED50,"[7]; 32 mA, read-out: ED50 32 mA (6 Hz test)",25.8 mg/kg
same,ED50,"[7]; 44 mA, read-out: ED50 44 mA (6 Hz test)",115 mg/kg
"C#Cc1ccc2c(c1)C(c1ccccc1)=N[C@H](C)c1nnc(C)n1-2 [SH-TR-CH3 (146), (4R)-8-Ethynyl-1,4-dimethyl-6-phenyl-4H-benzo[f][1,2,4]triazolo[4,3-a][1,4]diazepine]","TOX (Rotorod Test), animals toxic/tested","[2]; Mice IP, 30 mg/kg, 0.5 Hr",0/4
same,"TOX (Rotorod Test), animals toxic/tested","[2]; Mice IP, 30 mg/kg, 4.0 Hr",0/2
same,"TOX (Rotorod Test), animals toxic/tested","[2]; Mice IP, 100 mg/kg, 0.5 hr",1/8
same,"TOX (Rotorod Test), animals toxic/tested","[2]; Mice IP, 100 mg/kg, 4.0 hr",0/4
same,"TOX (Rotorod Test), animals toxic/tested","[2]; Mice IP, 300 mg/kg, 0.5 Hr",1/4
same,"TOX (Rotorod Test), animals toxic/tested","[2]; Mice IP, 300 mg/kg, 4.0 Hr",0/2
same,"scMet, animals protected/tested","[3]; Mice IP, 30 mg/kg, 0.5 Hr",0/1
same,"scMet, animals protected/tested","[3]; Mice IP, 30 mg/kg, 4.0 Hr",0/1
same,"scMet, animals protected/tested","[3]; Mice IP, 100 mg/kg, 0.5 hr",0/1
same,"scMet, animals protected/tested","[3]; Mice IP, 100 mg/kg, 4.0 hr",0/1
same,"scMet, animals protected/tested","[3]; Mice IP, 300 mg/kg, 0.5 Hr",1/1
same,"scMet, animals protected/tested","[3]; Mice IP, 300 mg/kg, 4.0 Hr",0/1
same,"MES, animals protected/tested","[4]; Mice IP, 30 mg/kg, 0.5 Hr",0/1
same,"MES, animals protected/tested","[4]; Mice IP, 30 mg/kg, 4.0 Hr",0/1
same,"MES, animals protected/tested","[4]; Mice IP, 100 mg/kg, 0.5 hr",0/3
same,"MES, animals protected/tested","[4]; Mice IP, 100 mg/kg, 4.0 hr",0/3
same,"MES, animals protected/tested","[4]; Mice IP, 300 mg/kg, 0.5 Hr",0/1
same,"MES, animals protected/tested","[4]; Mice IP, 300 mg/kg, 4.0 Hr",0/1
same,"MES, animals protected/tested","[5]; 50 mg/kg, 0.5 h",0/4
same,"MES, animals protected/tested","[5]; 50 mg/kg, 1.0 h",0/4
same,"MES, animals protected/tested","[5]; 50 mg/kg, 2.0 h",0/4
same,"MES, animals protected/tested","[5]; 50 mg/kg, 4.0 h",0/4
same,"MES, animals protected/tested","[5]; 50 mg/kg, […]",0/4
same,"Tox, animals toxic/tested","[6]; Rat PO, 0.5 h",0/4
same,"Tox, animals toxic/tested","[6]; Rat PO, 1.0 h",1/4
same,"Tox, animals toxic/tested","[6]; Rat PO, 2.0 h",1/4
same,"Tox, animals toxic/tested","[6]; Rat PO, 4.0 h",0/4
same,"Tox, animals toxic/tested","[6]; Rat PO, […]",0/4
same,Ki,[8],1.53 µM
same,Ki,[9],1.95 µM
same,Ki,[10],7.37 µM
same,"6 Hz Time to Peak Effect, protected/tested","[7]; 7 mg/kg, 32 mA, 0.25 Hr",4/4
same,"6 Hz Time to Peak Effect, protected/tested","[7]; 7 mg/kg, 32 mA, 0.5 Hr",4/4
same,"6 Hz Time to Peak Effect, protected/tested","[7]; 7 mg/kg, 32 mA, 1.0 Hr",2/4
same,"6 Hz Time to Peak Effect, protected/tested","[7]; 15 mg/kg, 32 mA, 0.25 Hr",4/4
same,"6 Hz Time to Peak Effect, protected/tested","[7]; 15 mg/kg, 32 mA, 0.5 Hr",4/4^14
same,"6 Hz Time to Peak Effect, protected/tested","[7]; 15 mg/kg, 32 mA, 1.0 Hr",4/4^14
same,"6 Hz Time to Peak Effect, protected/tested","[7]; 15 mg/kg, 32 mA, 2.0 Hr",2/4
same,"6 Hz Time to Peak Effect, protected/tested","[7]; 15 mg/kg, 32 mA, 4.0 Hr",1/4
same,"6 Hz Time to Peak Effect, protected/tested","[7]; 50 mg/kg, 32 mA, 0.25 Hr",4/4^14
same,"6 Hz Time to Peak Effect, protected/tested","[7]; 50 mg/kg, 32 mA, 0.5 Hr",4/4^14
same,"6 Hz Time to Peak Effect, protected/tested","[7]; 100 mg/kg, 32 mA, 0.25 Hr",4/4^14
same,"6 Hz Time to Peak Effect, protected/tested","[7]; 100 mg/kg, 32 mA, 0.5 Hr",4/4^14
same,"6 Hz Time to Peak Effect, protected/tested","[7]; 100 mg/kg, 32 mA, 1.0 Hr",4/4^14
same,"6 Hz Time to Peak Effect, protected/tested","[7]; 100 mg/kg, 32 mA, 2.0 Hr",4/4^14
same,"6 Hz Time to Peak Effect, protected/tested","[7]; 100 mg/kg, 32 mA, 4.0 Hr",4/4^14
same,"6 Hz ED50 Biological Response, protected/tested","[7]; 32 mA, 0.25 Hr, 1.75 mg/kg",4/8
same,"6 Hz ED50 Biological Response, protected/tested","[7]; 32 mA, 0.25 Hr, 7 mg/kg",8/8
same,"6 Hz ED50 Biological Response, protected/tested","[7]; 44 mA, 0.25 Hr, 5 mg/kg",5/8
same,"6 Hz ED50 Biological Response, protected/tested","[7]; 44 mA, 0.25 Hr, 10 mg/kg",8/8
same,ED50,"[7]; […], 32 mA, 0.25 Hr, read-out: ED50 (6 Hz)",2.08 mg/kg
same,ED50,"[7]; […], 44 mA, 0.25 Hr, read-out: ED50 (6 Hz)",4.55 mg/kg
